Measurements taken from ChEMBL document CHEMBL1132853, “Design and synthesis of highly potent fumagillin analogues from homology modeling for a human MetAP-2” (Bioorg Med Chem Lett, 2000).
≈ marks a conversion by molar mass, not a printed value.

Legend:
EL4 = experiment: Tested in vitro for its ability to inhibit cell proliferation of lymphoma EL-4 cells measured […] by MTT method; assay type: functional, cell-based, Mus musculus
CPAE = experiment: Tested in vitro for its ability to inhibit cell proliferation of calf pulmonary artery endothelial cells measured […] by SRB method; assay type: functional, cell-based, Bos taurus
P388 = experiment: Tested in vitro for its ability to inhibit cell proliferation of murine leukemia P388D1 cells measured […] by MTT method; assay type: functional, cell-based; conditions: Mus musculus
[1] = Mus musculus, EL4, read-out: IC50
[2] = Bos taurus, CPAE, Artery, read-out: IC50

Row | SMILES | IC50 (EL4; [1]) | IC50 (CPAE; [2]) | IC50 (P388) | IC50 (EL4; el4) | IC50 (CPAE; cpae)
1 | COc1ccc(COC(=O)O[C@@H]2CC[C@]3(CO3)[C@@H]([C@@]3(C)O[C@@H]3CC=C(C)C)[C@@H]2OC)cc1 | 42 ng/mL (≈ 94.1 nM) | 18 ng/mL (≈ 40.3 nM) | – | – | –
2 | COc1ccc(CCOC(=O)O[C@@H]2CC[C@]3(CO3)[C@@H]([C@@]3(C)O[C@@H]3CC=C(C)C)[C@@H]2OC)cc1 | 153 ng/mL (≈ 332 nM) | 2.3 ng/mL (≈ 4.99 nM) | – | – | –
3 | COc1ccc(/C=C\C(=O)O[C@@H]2CC[C@]3(CO3)[C@@H]([C@@]3(C)O[C@@H]3CC=C(C)C)[C@@H]2OC)cc1 | 12 ng/mL (≈ 27.1 nM) | 24 ng/mL (≈ 54.2 nM) | – | – | –
4 | CO[C@@H]1[C@H](O)CC[C@]2(CO2)[C@H]1[C@@]1(C)O[C@@H]1CC=C(C)C | 5.16 ng/mL (≈ 18.3 nM) | 15 ng/mL (≈ 53.1 nM) | > 10 ng/mL | – | –
5 | COc1ccc(CCNC(=O)O[C@@H]2CC[C@]3(CO3)[C@@H]([C@@]3(C)O[C@@H]3CC=C(C)C)[C@@H]2OC)cc1OC | 0.042 ng/mL (≈ 0.0858 nM) | 0.044 ng/mL (≈ 0.0899 nM) | > 1 ng/mL | – | –
6 | COc1cc(CCC(=O)O[C@@H]2CC[C@]3(CO3)[C@@H]([C@@]3(C)O[C@@H]3CC=C(C)C)[C@@H]2OC)cc(OC)c1OC | 36 ng/mL (≈ 71.3 nM) | 44 ng/mL (≈ 87.2 nM) | – | – | –
7 | COc1cc(/C=C/C(=O)O[C@@H]2CC[C@]3(CO3)[C@@H]([C@@]3(C)O[C@@H]3CC=C(C)C)[C@@H]2OC)cc(OC)c1OC | – | – | > 1 ng/mL | 0.00015 ng/mL (≈ 0.000298 nM) | 0.00003 ng/mL (≈ 5.97e-05 nM)
8 | CO[C@@H]1[C@H](OC(=O)/C=C/c2ccccc2)CC[C@]2(CO2)[C@H]1[C@@]1(C)O[C@@H]1CC=C(C)C | 0.05 ng/mL (≈ 0.121 nM) | 0.046 ng/mL (≈ 0.112 nM) | > 1 ng/mL | – | –
9 | CO[C@@H]1[C@H](OC(=O)NCc2ccc(C(F)(F)F)cc2)CC[C@]2(CO2)[C@H]1[C@@]1(C)O[C@@H]1CC=C(C)C | 0.014 ng/mL (≈ 0.029 nM) | 0.0054 ng/mL (≈ 0.0112 nM) | > 1 ng/mL | – | –
10 | CO[C@@H]1[C@H](OC(=S)SCc2ccccc2)CC[C@]2(CO2)[C@H]1[C@@]1(C)O[C@@H]1CC=C(C)C | 14 ng/mL (≈ 31.2 nM) | 42 ng/mL (≈ 93.6 nM) | – | – | –
11 | COc1ccc(CCCC(=O)O[C@@H]2CC[C@]3(CO3)[C@@H]([C@@]3(C)O[C@@H]3CC=C(C)C)[C@@H]2OC)cc1 | 83 ng/mL (≈ 181 nM) | 125 ng/mL (≈ 273 nM) | – | – | –
12 | CO[C@@H]1[C@H](OC(=O)OCc2ccc([N+](=O)[O-])cc2)CC[C@]2(CO2)[C@H]1[C@@]1(C)O[C@@H]1CC=C(C)C | 2.47 ng/mL (≈ 5.35 nM) | 0.11 ng/mL (≈ 0.238 nM) | > 1 ng/mL | – | –
13 | COc1ccc(CNC(=O)O[C@@H]2CC[C@]3(CO3)[C@@H]([C@@]3(C)O[C@@H]3CC=C(C)C)[C@@H]2OC)cc1 | 0.042 ng/mL (≈ 0.0943 nM) | 0.044 ng/mL (≈ 0.0988 nM) | > 1 ng/mL | – | –
14 | CO[C@@H]1[C@H](OC(=O)NCc2ccccc2)CC[C@]2(CO2)[C@H]1[C@@]1(C)O[C@@H]1CC=C(C)C | 0.01 ng/mL (≈ 0.0241 nM) | 0.07 ng/mL (≈ 0.168 nM) | > 1 ng/mL | – | –
15 | COc1ccc(/C=C/C(=O)O[C@@H]2CC[C@]3(CO3)[C@@H]([C@@]3(C)O[C@@H]3CC=C(C)C)[C@@H]2OC)cc1 | – | – | > 1 ng/mL | 0.00019 ng/mL (≈ 0.000429 nM) | 0.00006 ng/mL (≈ 0.000136 nM)
16 | C/C=C/C=C/C(=O)O[C@@H]1CC[C@]2(CO2)[C@@H]([C@@]2(C)O[C@@H]2CC=C(C)C)[C@@H]1OC | 5.05 ng/mL (≈ 13.4 nM) | 12 ng/mL (≈ 31.9 nM) | > 1 ng/mL | – | –
17 | CO[C@@H]1[C@H](OC(=O)/C=C/C=C/C=C/C=C/C(=O)O)CC[C@]2(CO2)[C@H]1[C@@]1(C)O[C@@H]1CC=C(C)C [FUMAGILLIN] | 0.42 ng/mL (≈ 0.916 nM) | 0.37 ng/mL (≈ 0.807 nM) | > 1 ng/mL | – | –
18 | CO[C@@H]1[C@H](OC(=O)NC(=O)CCl)CC[C@]2(CO2)[C@H]1[C@@]1(C)O[C@@H]1CC=C(C)C [O-CHLOROACETYLCARBAMOYLFUMAGILLOL] | 0.03 ng/mL (≈ 0.0746 nM) | 0.04 ng/mL (≈ 0.0995 nM) | > 10 ng/mL | – | –
